From patent US10385024B2, “Compounds and methods for inhibiting NHE-mediated antiport in the treatment of disorders associated with fluid retention or salt overload and gastrointestinal tract disorders” (Ardelyx, Inc., priority 2012, dated 2019) come the findings set out here.

A short description of data set [1]: Pharmacokinetic evaluation in bile. As to conditions: bile duct cannulated rats, oral gavage, nominal dose 30 mg/kg, bile collected over 24 h, mean of n=3. Format: in vivo, Sprague-Dawley rats. The protocol: Bile duct cannulated (BDC) Sprague-Dawley rats were dosed with test compounds by oral gavage and a single aliquot of bile was collected via cannula over the 24 h following dosing. Bile samples were treated with acetonitrile and precipitated proteins were removed by centrifugation. Some compounds required liquid-liquid extraction using MTBE. After centrifugation, samples were diluted as appropriate in mobile phase and analyzed by LC-MS/MS. The concentrations of compounds in bile were determined by interpolation from a standard calibration curve prepared in rat bile from untreated BDC rats. Accurate recovery of quality control samples was confirmed to accept each analytical run. Concentration in bile is reported in nM and represents the mean result from n=3 rats.

In data set [2] the target is T1, Rat NHE-3 (Rattus norvegicus, UniProt P26433).
T1 construct: expressed in transfected cells; host or cells: Opossum kidney (OK) cells (ATCC), transfected by electroporation
T1 sequence (P26433 29-831): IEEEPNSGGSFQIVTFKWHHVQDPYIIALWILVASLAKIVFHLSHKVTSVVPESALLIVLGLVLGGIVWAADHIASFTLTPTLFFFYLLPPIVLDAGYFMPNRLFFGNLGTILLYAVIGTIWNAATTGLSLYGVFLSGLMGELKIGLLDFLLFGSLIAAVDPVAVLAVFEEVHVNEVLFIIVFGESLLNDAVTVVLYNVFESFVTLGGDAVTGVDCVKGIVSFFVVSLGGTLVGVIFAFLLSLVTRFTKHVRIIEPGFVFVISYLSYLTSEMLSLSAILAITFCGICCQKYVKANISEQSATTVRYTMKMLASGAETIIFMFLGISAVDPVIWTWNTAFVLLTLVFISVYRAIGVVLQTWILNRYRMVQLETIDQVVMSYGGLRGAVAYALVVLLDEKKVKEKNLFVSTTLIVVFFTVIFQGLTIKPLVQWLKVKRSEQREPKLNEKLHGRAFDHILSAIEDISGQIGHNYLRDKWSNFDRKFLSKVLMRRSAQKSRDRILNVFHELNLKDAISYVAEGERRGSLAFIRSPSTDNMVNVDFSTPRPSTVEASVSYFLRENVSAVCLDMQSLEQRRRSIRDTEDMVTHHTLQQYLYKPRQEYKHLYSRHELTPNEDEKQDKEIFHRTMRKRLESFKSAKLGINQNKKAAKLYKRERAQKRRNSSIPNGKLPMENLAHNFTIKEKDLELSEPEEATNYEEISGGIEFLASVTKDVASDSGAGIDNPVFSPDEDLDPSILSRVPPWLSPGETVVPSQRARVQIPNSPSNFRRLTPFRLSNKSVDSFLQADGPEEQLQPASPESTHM
Description: Cell-based assay of NHE-3 activity (persistent inhibition, after washout). As to conditions: OK cells with rat NHE-3 gene, 60 min incubation, recovery initiated 40 min after compound washout; for IC50: read-out: Rat NHE3 pIC50 (persistent) (converted). The method in brief: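 OK cells transiently expressing rat NHE-3 were exposed to 0-30 μM compound in NaCl-HEPES pH 7.4 for 60 min, then washed free of drug before NH4Cl/BCECF-AM loading and acid-loading in Na+-free choline buffer. Na+-dependent pH recovery rates (mean of ≥2 replicates) gave pIC50.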

Data set [3] has as its target T1, Rat NHE-3. Description: Cell-based assay of NHE-3 activity (rat NHE-3 prompt inhibition). The conditions noted are these: OK cells with rat NHE-3 gene, compound present during pH recovery; for IC50: read-out: Rat NHE3 pIC50 (prompt) (converted). The essentials:
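Opossum kidney cells electroporated with rat or human NHE-3, loaded with 5 μM BCECF-AM in NH4Cl-HEPES pH 7.4 for 30 min at RT, then acidified 10 min in Na+-free choline HEPES. Na+-dependent pH recovery rates from BCECF fluorescence, averaged over ≥2 replicates, gave pIC50.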

Another data set in a line: Fecal recovery. In kind it is in vivo, Sprague Dawley rats. As to conditions: rat, 1 mg/kg oral gavage; for dose excreted: male, Sprague-Dawley, faeces. The procedure: Three male Sprague Dawley rats were administered 1 mg/kg test compound by oral gavage. Feces were collected from study animals from 0-48 or 0-72 hours after dosing, dried by lyophilization, and homogenized. Replicate aliquots of 40-60 mg each were subjected to extraction/protein precipitation with 7:1 acetonitrile:water and centrifuged. Supernatants were diluted 1:10 in 50:50 acetonitrile:water prior to analysis by LC-MS/MS. Compound concentrations, determined by interpolation from a standard calibration curve prepared in blank feces matrix, were converted to the percentage of dosed material recovered by taking into account the total collected fecal matter. The percent recovery for each rat was reported as the mean of the calculations from replicate samples. The overall percent recovery (Fecal Recovery [%]) was reported as the mean percent recovery from three rats. Accurate quality control sample recoveries were confirmed in each run, and extraction efficiency was periodically verified.

Another data set can be described thus: Plasma PK. Format: in vivo, Sprague-Dawley rats. As to conditions: Sprague-Dawley; rat plasma, oral gavage, nominal dose 30 mg/kg, mean of n=3, sampling 0.5-4 h. The procedure:
Sprague-Dawley rats (n=3) were dosed with test compounds by oral gavage. Blood was collected at 0.5, 1, 2 and 4 h via retro-orbital bleeds and processed to plasma using K2EDTA as an anticoagulant. Plasma samples were treated with acetonitrile containing an internal standard and precipitated proteins were removed by centrifugation. Supernatants were analyzed by LC-MS/MS and compound concentrations were determined by interpolation from a calibration curve prepared in plasma. Accurate recovery of quality control samples were confirmed to accept each analytical run.

Turning to `CN(C)CC(=O)NC(CCC(=O)NCCOCCOCCNS(=O)(=O)c1cccc([C@@H]2CN(C)Cc3c(Cl)cc(Cl)cc32)c1)(CCC(=O)NCCOCCOCCNS(=O)(=O)c1cccc([C@@H]2CN(C)Cc3c(Cl)cc(Cl)cc32)c1)CCC(=O)NCCOCCOCCNS(=O)(=O)c1cccc([C@@H]2CN(C)Cc3c(Cl)cc(Cl)cc32)c1` [Example 14, N1,N7-bis(2-(2-(2-(3-((S)-6,8-dichloro-2-methyl-1,2,3,4-tetrahydroisoquinolin-4-yl)phenylsulfonamido)ethoxy)ethoxy)ethyl)-4-(3-(2-(2-(2-(3-((S)-6,8-dichloro-2-methyl-1,2,3,4-tetrahydroisoquinolin-4-yl)phenylsulfonamido)ethoxy)ethoxy)ethylamino)-3-oxopropyl)-4-(2-(dimethylamino)acetamido)heptanediamide], the “Concentration in Bile” value in data set [1] came out at 0.028 µM. In addition, the IC50 at Rat NHE-3 [2] and at Rat NHE-3 [3] was under 0.1 µM throughout. In addition, in “Fecal recovery” (collection time 72 h), the dose excreted came to 75.3%.

One may read the AUC as concentration integrated over time. A lower AUC goes with low exposure. Broadly, the Cmax is the highest concentration seen after dosing. `CN1Cc2c(Cl)cc(Cl)cc2[C@H](c2cccc(S(=O)(=O)NCCOCCOCCNC(=O)CCC(CCC(=O)NCCOCCOCCNS(=O)(=O)c3cccc([C@@H]4CN(C)Cc5c(Cl)cc(Cl)cc54)c3)(CCC(=O)NCCOCCOCCNS(=O)(=O)c3cccc([C@@H]4CN(C)Cc5c(Cl)cc(Cl)cc54)c3)NC(=O)NCC(=O)O)c2)C1` [Example 7, 18-(3-((S)-6,8-dichloro-2-methyl-1,2,3,4-tetrahydroisoquinolin-4-yl)phenylsulfonamido)-6,6-bis(3-(2-(2-(2-(3-((S)-6,8-dichloro-2-methyl-1,2,3,4-tetrahydroisoquinolin-4-yl)phenylsulfonamido)ethoxy)ethoxy)ethylamino)-3-oxopropyl)-4,9-dioxo-13,16-dioxa-3,5,10-triazaoctadecan-1-oic acid]: in “Plasma PK”, the AUC was under 0.008 µg·h/mL and the Cmax is under 2 ng/mL. Further, the “Concentration in Bile” value in data set [1] was 0.019 µM. In addition, the IC50 on Rat NHE-3 [2] was under 0.1 µM. Further, at Rat NHE-3 [3], the IC50 is under 0.1 µM. This molecule also yielded a dose excreted in the data set “Fecal recovery” (collection time 48 h) of 83.2%.

Turning to `CN1Cc2c(Cl)cc(Cl)cc2[C@H](c2cccc(S(=O)(=O)NCCOCCOCCNC(=O)NCCCN(CCCNC(=O)NCCOCCOCCNS(=O)(=O)c3cccc([C@@H]4CN(C)Cc5c(Cl)cc(Cl)cc54)c3)CCCNC(=O)NCCOCCOCCNS(=O)(=O)c3cccc([C@@H]4CN(C)Cc5c(Cl)cc(Cl)cc54)c3)c2)C1` [Example 43, (S)—N,N′-(15-(1-(3-((S)-6,8-dichloro-2-methyl-1,2,3,4-tetrahydroisoquinolin-4-yl)phenylsulfonamido)-10-oxo-3,6-dioxa-9,11-diazatetradecan-14-yl)-10,20-dioxo-3,6,24,27-tetraoxa-9,11,15,19,21-pentaazanonacosane-1,29-diyl)bis(3-((S)-6,8-dichloro-2-methyl-1,2,3,4-tetrahydroisoquinolin-4-yl)benzenesulfonamide)], in data set [1], the “Concentration in Bile” value was 0.006 µM. Also, the IC50 is under 0.1 µM on Rat NHE-3 [2] and 0.1 to 10 µM on Rat NHE-3 [3]. This molecule also returned a dose excreted in the data set “Fecal recovery” (collection time 48 h) of 53.8%.

For `CN1Cc2c(Cl)cc(Cl)cc2[C@H](c2cccc(S(=O)(=O)NCCOCCOCCNC(=O)CCC(CCC(=O)NCCOCCOCCNS(=O)(=O)c3cccc([C@@H]4CN(C)Cc5c(Cl)cc(Cl)cc54)c3)(CCC(=O)NCCOCCOCCNS(=O)(=O)c3cccc([C@@H]4CN(C)Cc5c(Cl)cc(Cl)cc54)c3)NC(=O)CCC(=O)O)c2)C1` [Example 40], the “Concentration in Bile” value in data set [1] is 0.023 µM. The “Rat NHE3 pIC50 (persistent)” value at Rat NHE-3 [2] was “C (C NHE3 pIC50 > 7)”. Also, on Rat NHE-3 [3], the “Rat NHE3 pIC50 (prompt)” value is given as “C (C NHE3 pIC50 > 7)”. Moreover, the “Fecal Recovery” value in the data set “Fecal recovery” (collection time 48 h) is listed as 99.1%.

For `CN1Cc2c(Cl)cc(Cl)cc2[C@H](c2cccc(S(=O)(=O)NCCOCCOCCNC(=O)CCC(CCC(=O)NCCOCCOCCNS(=O)(=O)c3cccc([C@@H]4CN(C)Cc5c(Cl)cc(Cl)cc54)c3)(CCC(=O)NCCOCCOCCNS(=O)(=O)c3cccc([C@@H]4CN(C)Cc5c(Cl)cc(Cl)cc54)c3)NC(=O)COCC(=O)O)c2)C1` [Example 6, 1-(3-((S)-6,8-dichloro-2-methyl-1,2,3,4-tetrahydroisoquinolin-4-yl)phenylsulfonamido)-13,13-bis(3-(2-(2-(2-(3-((S)-6,8-dichloro-2-methyl-1,2,3,4-tetrahydroisoquinolin-4-yl)phenylsulfonamido)ethoxy)ethoxy)ethylamino)-3-oxopropyl)-10,15-dioxo-3,6,17-trioxa-9,14-diazanonadecan-19-oic Acid], the “Concentration in Bile” value in data set [1] came to 0.021 µM. In addition, the IC50 at Rat NHE-3 [2] and at Rat NHE-3 [3] was under 0.1 µM each time. The dose excreted in the data set “Fecal recovery” (collection time 48 h) amounted to 51.5%.

In “Plasma PK”, `CN1Cc2c(Cl)cc(Cl)cc2[C@H](c2cccc(S(=O)(=O)NCCOCCOCCNC(=O)CCC(CCC(=O)NCCOCCOCCNS(=O)(=O)c3cccc([C@@H]4CN(C)Cc5c(Cl)cc(Cl)cc54)c3)(CCC(=O)NCCOCCOCCNS(=O)(=O)c3cccc([C@@H]4CN(C)Cc5c(Cl)cc(Cl)cc54)c3)N(C)C)c2)C1` [Example 4, N^1,N^7-bis(2-(2-(2-(3-((S)-6,8-dichloro-2-methyl-1,2,3,4-tetrahydroisoquinolin-4-yl)phenylsulfonamido)ethoxy)ethoxy)ethyl)-4-(3-(2-(2-(2-(3-((S)-6,8-dichloro-2-methyl-1,2,3,4-tetrahydroisoquinolin-4-yl)phenylsulfonamido)ethoxy)ethoxy)ethylamino)-3-oxopropyl)-4-(dimethylamino)heptanediamide] came in with an AUC of under 0.013 µg·h/mL and a peak concentration (Cmax) of under 5 ng/mL. Also, the “Concentration in Bile” value in data set [1] was determined as 0.045 µM. For the same molecule, on Rat NHE-3 [2], the IC50 was under 0.1 µM. Besides, the IC50 on Rat NHE-3 [3] is under 0.1 µM.

In the case of `CN1Cc2c(Cl)cc(Cl)cc2[C@H](c2cccc(S(=O)(=O)NCCOCCOCCNC(=O)CCC(N)(CCC(=O)NCCOCCOCCNS(=O)(=O)c3cccc([C@@H]4CN(C)Cc5c(Cl)cc(Cl)cc54)c3)CCC(=O)NCCOCCOCCNS(=O)(=O)c3cccc([C@@H]4CN(C)Cc5c(Cl)cc(Cl)cc54)c3)c2)C1` [Example 2, 4-amino-N^1,N^7-bis(2-(2-(2-(3-((S)-6,8-dichloro-2-methyl-1,2,3,4-tetrahydroisoquinolin-4-yl)phenylsulfonamido)ethoxy)ethoxy)ethyl)-4-(3-(2-(2-(2-(3-((S)-6,8-dichloro-2-methyl-1,2,3,4-tetrahydroisoquinolin-4-yl)phenylsulfonamido)ethoxy)ethoxy)ethylamino)-3-oxopropyl)heptanediamide], in the data set “Plasma PK”, the AUC is under 0.012 µg·h/mL and the Cmax was under 4 ng/mL. Also, in data set [1], the “Concentration in Bile” value amounted to 0.004 µM. Moreover, at Rat NHE-3 [2], the IC50 is under 0.1 µM. Moreover, at Rat NHE-3 [3], the IC50 is under 0.1 µM. In addition, the dose excreted in “Fecal recovery” (collection time 48 h) was 87%.

For the molecule `CN1Cc2c(Cl)cc(Cl)cc2[C@H](c2cccc(S(=O)(=O)NCCOCCOCCNC(=O)CCC(CCC(=O)NCCOCCOCCNS(=O)(=O)c3cccc([C@@H]4CN(C)Cc5c(Cl)cc(Cl)cc54)c3)(CCC(=O)NCCOCCOCCNS(=O)(=O)c3cccc([C@@H]4CN(C)Cc5c(Cl)cc(Cl)cc54)c3)NC(=O)CCCC(=O)O)c2)C1` [Example 36], the “Concentration in Bile” value in data set [1] amounted to 0.017 µM. The “Rat NHE3 pIC50 (persistent)” value on Rat NHE-3 [2] is listed as “C (C NHE3 pIC50 > 7)”. In addition, on Rat NHE-3 [3], the “Rat NHE3 pIC50 (prompt)” value is reported as “C (C NHE3 pIC50 > 7)”. The “Fecal Recovery” value in “Fecal recovery” (collection time 48 h) amounted to 68%.
